Measured values reported in patent US4224332A, “1-Aza-[2,2,2]-bicyclooctanes and anti-depressant and anti-parkinsonian compositions thereof” (Pharmindustrie, priority 1978, dated 1980).
Entries after “also recorded” stand apart in the source; their conditions may differ. Where two headings read alike, the source gives them in different places.

Key:
[1] = tested on: uptake of the serotonine (5-HT); test: inhibition of the uptake of serotonine (5-HT) by synaptosomes of the rat's brain, medulla + pons; format: biochemical; details: in vitro; for IC50: rat brain synaptosomes, medulla + pons
Source text: (§1) The results are expressed by an inhibiting concentration IC50, which represents the dose of product in micromoles per liter reducing by 50% the uptake of the noradrenaline (NA), the dopamine (DA), the serotonine (5-HT), or the choline in the specific regions of the brain (hypothalamus,striatum, medulla+pons) where the corresponding neurons predominate.

[2] = tested on: uptake of the noradrenaline (NA); test: inhibition of the uptake of noradrenaline (NA) by synaptosomes of the rat's brain, hypothalamus; format: biochemical; details: in vitro; for IC50: rat brain synaptosomes, hypothalamus
Source text: as §1

[3] = tested on: uptake of the choline; test: inhibition of the uptake of choline by synaptosomes of the rat's brain, striatum; format: biochemical; details: in vitro; for IC50: rat brain synaptosomes, striatum
Source text: as §1

[4] = tested on: hypothermia caused by reserpine; test: action on hypothermia caused by reserpine in mice; format: in vivo; details: Mus musculus, po, read-out: ED50 p.o. (dose exerting an antihypothermic effect equal to 50% of that caused by 15 mg/kg per os of imipramine)
Experimental: The results are expressed by an ED50 or dose of product, in mg/kg, capable of exerting an antihypothermic effect equal to 50% of the antihypothermic effect caused by 15 mg/kg (per os) of imipramine.

[5] = tested on: uptake of the dopamine (DA); test: inhibition of the uptake of dopamine (DA) by synaptosomes of the rat's brain, striatum; format: biochemical; details: in vitro; for IC50: rat brain synaptosomes, striatum
Source text: as §1

[6] = acute toxicity, oral, male mouse CD1; details: in vivo, 3 days observation
Source text: The acute toxicities of the compounds of formula (I) have been determined on the male mouse CD1 (Charles River), the products being administered orally. The LD50 have been calculated, after 3 days observation, by the cumulative method of J. J. REED and H. MUENCH. (Amer. J. Hyg. 27, 493, 1938), which is relied upon herein for this purpose and the disclosure incorporated by reference.

[7] = compared with imipramine and nomifensine

SMILES | IC50 [1] [nM] | IC50 [2] [nM] | IC50 [3] [nM] | ED50 ([4]; mice, p.o., reserpine hypothermia) [mg/kg] | IC50 [5] [nM] | inhibiting effect on 5-HT uptake, in words ([1]; compared with imipramine) | inhibiting effect on NA uptake, in words ([2]; compared with imipramine) | inhibiting activity on the neuronal uptake of the choline, in words [3, 7] | ED50 [4] [mg/kg] | LD50 at 72 h [6] [mg/kg] | inhibiting effect on uptake of the dopamine at the level of the striatum, in words [5, 7]
CN(C)CCCN1c2ccccc2CCc2ccccc21 [Imipramine, reference compound] | 80 | 130 | 30000 | 3 | 55000 |  |  |  |  |  | 
c1ccc(C2CN3CCC2(c2ccccc2)CC3)cc1 (stereo not drawn) [Example 4, 3,4-diphenyl-1-aza-[2,2,2]-bicyclooctane] | 300 | 45 | 25000 |  | 600 | active on all the four mediators used; also recorded: near to that of the imipramine | active on all the four mediators used; also recorded: near to that of the imipramine | active on all the four mediators used; also recorded: near to that of the imipramine; also recorded: exerts on the neuronal uptake of the choline an inhibiting activity | 2 | 200 | active on all the four mediators used; also recorded: very superior to that of imipramine; also recorded: comes near to the nomifensine
